Drawing on patent US20260317356A1, “SMALL MOLECULE MODULATORS OF OGG1” (AZKARRA THERAPEUTICS, INC., priority 2023, published 2026), this text covers IC50 for 25 compounds.

Each structure is given as a SMILES string.

hOGG1, sequence (O15527 12-323): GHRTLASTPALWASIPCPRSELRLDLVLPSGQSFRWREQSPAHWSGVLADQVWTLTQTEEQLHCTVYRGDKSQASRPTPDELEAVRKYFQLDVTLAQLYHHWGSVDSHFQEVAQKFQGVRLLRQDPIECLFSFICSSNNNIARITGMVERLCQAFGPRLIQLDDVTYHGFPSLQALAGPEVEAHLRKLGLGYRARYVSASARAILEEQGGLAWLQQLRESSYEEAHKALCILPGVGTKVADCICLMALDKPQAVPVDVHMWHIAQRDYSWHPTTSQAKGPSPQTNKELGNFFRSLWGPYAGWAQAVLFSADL

In the assay the target is hOGG1 (Homo sapiens, UniProt O15527). Put plainly: Biochemical fluorescence assay to measure enzymatic activity of hOGG1 (OGG1/APEX IC50). Further details: Protein His-hOGG1 (12-323) was prepared; His (N); host or cells: E. coli. The note with it: 1 nM OGG1+2 nM APEX+6 nM dsDNA (8-oxo-dG substrate); pH 7.5; RT 40 min; read-out: OGG1/APEX IC50. Here is the method:
Biological Example 1: Biochemical Assay to Measure Enzymatic Activity of hOGG1 (OGG1/APEX IC50)
The reported fluorescence-based assay (Donley et al ACS Chem Biol 2015; 10 (10), 2334-2343) was modified to include hAPE1/APEX1 protein. The oligonucleotide substrate with 8-oxo-dG lesion at X was prepared (LGC Biosearch, Petaluma, CA):
Protein His-hOGG1 (12-323) was prepared by Chempartner Corporation via E. coliexpression and purification by Ni-NTA and S200 column to afford 95% purity by SDS-PAGE and SEC-HPLC analysis and hAPE1/APEX1 was purchased (SinoBiological). The assay was run in 384-well plates following the general procedure: (1) compound dilution; (2) addition of hOGG1/APEX1 to compound wells; (3) addition of DNA substrate to compound wells; (4) read Ex520/Em600 (TAMRA) fluorescence signal after 40 minutes; (5) calculate % inhibition/compound concentration; (6) calculate dose-response curve and IC50 value.
• (1) 20 mM of compound solution was prepared in DMSO; • (2) Compounds were diluted to 10 mM in DMSO in ECHO Source plate (Labcyte PP-0200), by mixing […] DMSO; • (3) 4× dilution of compounds, for 10 points, by mixing […] DMSO; and • (4) Dispensed 150 nL compounds to assay plate (Corning 3573) in column 3-22. Dispensed 150 nL DMSO to Min and Max control wells in column 1-2 and column 23-24.
• (1) Assay buffer was prepared (20 mM Tris pH 7.5, 100 mM KCl, 0.1% BSA, 0.01% Tween). • (2) […] buffer was added to Min control wells (Column 1-2). • (3) Enzyme was diluted to 2× with buffer (2 nM OGG1+4 nM APEX1). Dispensed […] (except Min control wells). Shake at 500 rpm at RT for 20 min. • (4) DNA substrate diluted to 2× with buffer (12 nM). Dispensed […]. Final concentration: 1 nM OGG1+2 nM APEX+6 nM dsDNA. Shake at RT for 40 min. • (5) Ex520/Em600 (TAMRA) was read.
• (1) Calculated respective mean of Max and Min control wells. • (2) Converted data to percentage inhibition.
Inhibition (%)=(Max mean−value)/(Max mean−Min mean)×100% • (3) Calculated sigmoidal curve (3-parameter) and IC50 (using GraphPad Prism software).
As for `C=Cc1ccc(C)c2c1NC(=O)N([C@H]1CC[C@@H](C(=O)Nc3ccc(C)c(OC)c3)CC1)C2` [Example 55, (1s,4s)-N-(3-Methoxy-4-methylphenyl)-4-(5-methyl-2-oxo-8-vinyl-1,2-dihydroquinazolin-3(4H)-yl)cyclohexanecarboxamide], the IC50 is less than 0.1 µM. Next, `COc1cc(NC(=O)[C@H]2CC[C@@H](N3Cc4c(ccc(C#N)c4C)NC3=O)CC2)ccc1C` [Example 56, (1s,4s)-4-(6-Cyano-5-methyl-2-oxo-1,2-dihydroquinazolin-3(4H)-yl)-N-(3-methoxy-4-methylphenyl)cyclohexanecarboxamide]: 0.1 to 1 µM; `COc1cc(NC(=O)[C@H]2CC[C@@H](N3Cc4c(ccc(CN)c4C)NC3=O)CC2)ccc1C` [Example 57, (1s,4s)-4-(6-(Aminomethyl)-5-methyl-2-oxo-1,2-dihydroquinazolin-3(4H)-yl)-N-(3-methoxy-4-methylphenyl)cyclohexanecarboxamide]: 1 to 10 µM. Under `COc1cc(NC(=O)[C@H]2CC[C@@H](N3Cc4c(ccc(O)c4C)NC3=O)CC2)ccc1C` [Example 60, (1s,4s)-4-(6-Hydroxy-5-methyl-2-oxo-1,2-dihydroquinazolin-3(4H)-yl)-N-(3-methoxy-4-methylphenyl)cyclohexanecarboxamide] stands less than 0.1 µM. Under `COc1cc(NC(=O)[C@H]2CC[C@@H](N3Cc4c(C)ccc(O)c4NC3=O)CC2)ccc1C` [Example 61, (1s,4s)-4-(8-hydroxy-5-methyl-2-oxo-1,2-dihydroquinazolin-3(4H)-yl)-N-(3-methoxy-4-methylphenyl)cyclohexanecarboxamide] stands less than 0.1 µM; under `COc1cc(NC(=O)[C@H]2CC[C@@H](N3Cc4c(C)ccc(Br)c4NC3=O)CC2)ccc1C` [Example 62, (1s,4s)-4-(8-Bromo-5-methyl-2-oxo-1,2-dihydroquinazolin-3(4H)-yl)-N-(3-methoxy-4-methylphenyl)cyclohexanecarboxamide], less than 0.1 µM; under `COc1cc(NC(=O)[C@H]2CC[C@@H](N3Cc4c(ccc(Br)c4C)NC3=O)CC2)ccc1C` [Example 63, (1s,4s)-4-(6-bromo-5-methyl-2-oxo-1,2-dihydroquinazolin-3(4H)-yl)-N-(3-methoxy-4-methylphenyl)cyclohexanecarboxamide], 1 to 10 µM. Consider `COc1cc(NC(=O)N2CCC(N3Cc4ccccc4NC3=O)CC2)ccc1C` [Example 64, N-(3-methoxy-4-methylphenyl)-4-(2-oxo-1,2-dihydroquinazolin-3(4H)-yl)piperidine-1-carboxamide], for which the IC50 lay in the range of 0.1 to 1 µM. Next, `COc1cc(NC(=O)[C@@H]2CC[C@H](N3Cc4ccccc4NC3=O)C2)ccc1C` [Example 65, (1R,3S)—N-(3-methoxy-4-methylphenyl)-3-(2-oxo-1,2-dihydroquinazolin-3(4H)-yl)cyclopentanecarboxamide]: 1 to 10 µM; `COc1cc(NC(=O)[C@H]2CC[C@@H](N3Cc4c(Br)cccc4NC3=O)CC2)ccc1C` [Example 66, (1s,4s)-4-(5-bromo-2-oxo-1,2-dihydroquinazolin-3(4H)-yl)-N-(3-methoxy-4-methylphenyl)cyclohexanecarboxamide]: 0.1 to 1 µM. Next, `COc1cc(NC(=O)[C@H]2CC[C@@H](N3Cc4c(Cl)cccc4NC3=O)CC2)ccc1C` [Example 68, (1s,4s)-4-(5-chloro-2-oxo-1,2-dihydroquinazolin-3(4H)-yl)-N-(3-methoxy-4-methylphenyl)cyclohexanecarboxamide]: 0.1 to 1 µM; `COc1cc(NC(=O)[C@H]2CC[C@@H](N3Cc4c(C)cccc4NC3=O)CC2)ccc1C` [Example 69, (1s,4s)-N-(3-methoxy-4-methylphenyl)-4-(5-methyl-2-oxo-1,2-dihydroquinazolin-3(4H)-yl)cyclohexanecarboxamide]: less than 0.1 µM. Under `COc1cc(NC(=O)[C@H]2CC[C@@H](N3Cc4c(cccc4C(F)(F)F)NC3=O)CC2)ccc1C` [Example 70, (1s,4s)-N-(3-methoxy-4-methylphenyl)-4-(2-oxo-5-(trifluoromethyl)-1,2-dihydroquinazolin-3(4H)-yl)cyclohexanecarboxamide] stands 0.1 to 1 µM; under `COc1cc(NC(=O)[C@H]2CC[C@@H](N3Cc4c(cccc4OC)NC3=O)CC2)ccc1C` [Example 71, (1s,4s)-4-(5-methoxy-2-oxo-1,2-dihydroquinazolin-3(4H)-yl)-N-(3-methoxy-4-methylphenyl)cyclohexanecarboxamide], 1 to 10 µM; under `CCc1cccc2c1CN([C@H]1CC[C@@H](C(=O)Nc3ccc(C)c(OC)c3)CC1)C(=O)N2` [Example 72, (1s,4s)-4-(5-ethyl-2-oxo-1,2-dihydroquinazolin-3(4H)-yl)-N-(3-methoxy-4-methylphenyl)cyclohexanecarboxamide], 0.1 to 1 µM.

As to `COc1cc(NC(=O)[C@H]2CC[C@@H](N3Cc4c(Cl)cccc4N(C)C3=O)CC2)ccc1C` [Example 73, (1s,4s)-4-(5-chloro-1-methyl-2-oxo-1,2-dihydroquinazolin-3(4H)-yl)-N-(3-methoxy-4-methylphenyl)cyclohexanecarboxamide], the IC50 lay in the range of 0.1 to 1 µM. For `COc1cc(NC(=O)[C@H]2CC[C@@H](N3Cc4c(C)cc(Br)cc4NC3=O)CC2)ccc1C` [Example 74, (1s,4s)-4-(7-bromo-5-methyl-2-oxo-1,2-dihydroquinazolin-3(4H)-yl)-N-(3-methoxy-4-methylphenyl)cyclohexanecarboxamide], the IC50 lay within 0.1 to 1 µM. Under `COc1cc(NC(=O)[C@H]2CC[C@@H](N3Cc4c(F)cccc4NC3=O)CC2)ccc1C` [Example 75, (1s,4s)-4-(5-fluoro-2-oxo-1,2-dihydroquinazolin-3(4H)-yl)-N-(3-methoxy-4-methylphenyl)cyclohexanecarboxamide] stands 0.1 to 1 µM. Next, `COc1cc(NC(=O)[C@H]2CC[C@@H](N3Cc4c(C)cc(N)cc4NC3=O)CC2)ccc1C` [Example 76, (1s,4s)-4-(7-amino-5-methyl-2-oxo-1,2-dihydroquinazolin-3(4H)-yl)-N-(3-methoxy-4-methylphenyl)cyclohexanecarboxamide]: less than 0.1 µM; `COc1cc(NC(=O)[C@H]2CC[C@@H](N3Cc4c(C)cc(O)cc4NC3=O)CC2)ccc1C` [Example 77, (1s,4s)-4-(7-hydroxy-5-methyl-2-oxo-1,2-dihydroquinazolin-3(4H)-yl)-N-(3-methoxy-4-methylphenyl)cyclohexanecarboxamide]: less than 0.1 µM. Next, `COc1cc(NC(=O)[C@H]2CC[C@@H](N3Cc4c(C)cc(C=O)cc4NC3=O)CC2)ccc1C` [Example 78, (1s,4s)-4-(7-formyl-5-methyl-2-oxo-1,2-dihydroquinazolin-3(4H)-yl)-N-(3-methoxy-4-methylphenyl)cyclohexanecarboxamide]: less than 0.1 µM; `COc1cc(NC(=O)[C@H]2CC[C@@H](N3Cc4c(C)cc(C(=O)O)cc4NC3=O)CC2)ccc1C` [Example 79, 3-((1s,4s)-4-(3-methoxy-4-methylphenylcarbamoyl)cyclohexyl)-5-methyl-2-oxo-1,2,3,4-tetrahydroquinazoline-7-carboxylic Acid]: 0.1 to 1 µM.

With `CNC(=O)c1cc(C)c2c(c1)NC(=O)N([C@H]1CC[C@@H](C(=O)Nc3ccc(C)c(OC)c3)CC1)C2` [Example 80, 3-((1s,4s)-4-(3-methoxy-4-methylphenylcarbamoyl)cyclohexyl)-N,5-dimethyl-2-oxo-1,2,3,4-tetrahydroquinazoline-7-carboxamide], the IC50 was less than 0.1 µM. In the case of `COc1cc(NC(=O)[C@H]2CC[C@@H](N3Cc4c(C)cc(CO)cc4NC3=O)CC2)ccc1C` [Example 81, (1s,4s)-4-(7-(hydroxymethyl)-5-methyl-2-oxo-1,2-dihydroquinazolin-3(4H)-yl)-N-(3-methoxy-4-methylphenyl)cyclohexanecarboxamide], the IC50 is less than 0.1 µM. Under `COc1cc(NC(=O)[C@H]2CC[C@@H](N3Cc4c(C)cc(OCCN(C)C)cc4NC3=O)CC2)ccc1C` [Example 82, (1s,4s)-4-(7-(2-(dimethylamino)ethoxy)-5-methyl-2-oxo-1,2-dihydroquinazolin-3(4H)-yl)-N-(3-methoxy-4-methylphenyl)cyclohexanecarboxamide] stands less than 0.1 µM.
